Source: ChEMBL document CHEMBL1146612 (Bioorg Med Chem Lett, 2003)

Assays:
[1] = target: Histamine H1 receptor (Rattus norvegicus) (UniProt P31390); test: Ability to displace [3H]pyrilamine from histamine H1 receptor in male Sprague-Dawley rat brain membranes at 1 ug/mL; assay type: tissue-based; conditions: Membrane
Histamine H3 receptor = Histamine H3 receptor (Cavia porcellus, UniProt Q9JI35); test: Binding affinity against H3 receptor in guinea pig brain using [3H]N-alpha-methyl histamine as radioligand
Histamine H1 receptor = Histamine H1 receptor (Rattus norvegicus, UniProt P31390); test: Ability to displace [3H]pyrilamine from histamine H1 receptor in male Sprague-Dawley rat brain membranes; assay type: tissue-based, Membrane
Histamine H1 receptor, sequence (P31390 whole entry): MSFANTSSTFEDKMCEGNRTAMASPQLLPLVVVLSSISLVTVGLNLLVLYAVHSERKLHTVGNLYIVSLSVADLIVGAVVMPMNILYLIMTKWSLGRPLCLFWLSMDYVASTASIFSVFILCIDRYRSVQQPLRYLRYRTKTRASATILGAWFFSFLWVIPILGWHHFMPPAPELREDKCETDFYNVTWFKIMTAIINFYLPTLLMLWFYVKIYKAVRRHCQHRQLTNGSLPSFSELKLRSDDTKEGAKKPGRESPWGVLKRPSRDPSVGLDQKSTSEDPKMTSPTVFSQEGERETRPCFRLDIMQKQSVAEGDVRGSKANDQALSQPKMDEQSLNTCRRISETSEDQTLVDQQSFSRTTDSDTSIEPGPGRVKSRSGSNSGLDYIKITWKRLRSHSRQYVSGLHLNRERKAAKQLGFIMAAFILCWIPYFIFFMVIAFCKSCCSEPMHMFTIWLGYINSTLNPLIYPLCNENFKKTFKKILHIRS

Histamine H3 receptor, sequence (Q9JI35 whole entry): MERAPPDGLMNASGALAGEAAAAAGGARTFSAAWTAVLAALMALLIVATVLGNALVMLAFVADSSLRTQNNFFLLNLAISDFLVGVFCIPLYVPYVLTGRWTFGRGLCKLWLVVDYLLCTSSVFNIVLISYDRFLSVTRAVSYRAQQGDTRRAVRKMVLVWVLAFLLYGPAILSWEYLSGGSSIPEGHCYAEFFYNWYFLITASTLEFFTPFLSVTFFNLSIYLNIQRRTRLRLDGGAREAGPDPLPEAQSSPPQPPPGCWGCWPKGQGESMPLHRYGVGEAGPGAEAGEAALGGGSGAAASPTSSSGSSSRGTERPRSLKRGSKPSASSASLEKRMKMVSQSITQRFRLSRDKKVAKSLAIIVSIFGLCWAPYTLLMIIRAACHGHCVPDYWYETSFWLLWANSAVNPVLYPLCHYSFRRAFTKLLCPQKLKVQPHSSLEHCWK
Histamine H1 receptor (Rattus norvegicus), sequence (P31390 whole entry): as the sequence (P31390 whole entry) above

Structure (SMILES)	inhibition [1] [%]	Ki (Histamine H3 receptor) [nM]	Ki (Histamine H1 receptor) [nM]
c1ccc(C(CCNCCCCc2c[nH]cn2)c2ccccn2)nc1	< 50	4	
O=C(CC(c1ccccn1)c1ccccn1)NCCCCc1c[nH]cn1	< 50	1	
CN(CCCCc1c[nH]cn1)C(=O)CC(c1ccc(Cl)cc1)c1ccccn1 (stereo not given)	< 50	7	
O=C(NCCCCc1cnc[nH]1)NCCC(c1ccc(Cl)cc1)c1ccccn1 (stereo not given)		23	920
Clc1ccc(C(CCNCCCCCc2cnc[nH]2)c2ccccn2)cc1 (stereo not given)		33	39
CN(CCC(c1ccc(Cl)cc1)c1ccccn1)C(=O)CCc1c[nH]cn1 (stereo not given)	< 50		
CN(CCCCCc1c[nH]cn1)CCC(c1ccc(Cl)cc1)c1ccccn1 (stereo not given)		50	6

Continued, values first:

inhibition [1] [%]	Ki (Histamine H3 receptor) [nM]	Ki (Histamine H1 receptor) [nM]	Structure (SMILES)
< 50	1		O=C(CC(c1ccc(Cl)cc1)c1ccccn1)NCCCCc1c[nH]cn1 (stereo not given)
< 50			Clc1ccc(C(CCNCCCc2c[nH]cn2)c2ccccn2)cc1 (stereo not given)
< 50			O=C(CC(c1ccc(Cl)cc1)c1ccccn1)NCCc1c[nH]cn1 (stereo not given)
< 50			O=C(CCc1c[nH]cn1)NCCC(c1ccc(Cl)cc1)c1ccccn1 (stereo not given)
< 50			N=C(CC(c1ccc(Cl)cc1)c1ccccn1)NCCc1c[nH]cn1 (stereo not given)
< 50			CN(CCc1c[nH]cn1)C(=O)CC(c1ccc(Cl)cc1)c1ccccn1 (stereo not given)
